{"source": "patent US20240199644A1", "about": "“Fused Ring Derivatives Useful as KRAS G12D Inhibitors” (JACOBIO PHARMACEUTICALS CO., LTD., priority 2021, published 2024)", "key": {"[1]": {"molecular_target": "GDP-loaded HIS-KRAS(G12D, aa 1-169) (Homo sapiens (Human), UniProt P01116, G12D)", "sequence (P01116 other isoform, or with tags, fused parts or gaps G12D)": "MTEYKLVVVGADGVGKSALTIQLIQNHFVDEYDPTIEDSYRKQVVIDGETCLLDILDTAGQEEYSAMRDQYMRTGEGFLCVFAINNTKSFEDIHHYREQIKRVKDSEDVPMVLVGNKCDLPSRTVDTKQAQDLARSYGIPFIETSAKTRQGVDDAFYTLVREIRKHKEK", "assay": "SOS1 catalyzed nucleotide exchange assay", "assay_type": "biochemical", "conditions": "TR-FRET; 1.5 nM GDP-loaded HIS-KRAS(G12D), 0.5 μM SOS1 ExD, 4 hours at 25° C.", "method": "GDP-loaded HIS-KRAS(G12D, aa 1-169) was pre-incubated with a compound in the presence of 10 nM GDP in a 384-well plate (Greiner) for 15 min, then purified SOS1 ExD(Flag tag, aa 564-1049), BODIPY™ FL GTP (Invitrogen) and MAb(monoclonal antibody) Anti 6HIS-Tb cryptate Gold (Cisbio) were added to the assay wells (Final concentration: 1.5 nM GDP-loaded HIS-KRAS(G12D), 5 nM GDP, 0.5 μM SOS1 ExD, 80 nM BODIPY™ FL GTP, 52.5 ng/mL MAb Anti 6HIS-Tb cryptate Gold) and incubated for 4 hours at 25° C. Wells containing same percent of DMSO served as vehicle control, and wells without KRAS served as low control. TR-FRET signals were read on Tecan Spark multimode microplate reader. The parameters were F486: Excitation 340 nm, Emission 486 nm, Lag time 100 μs, Integration time 200 μs; F515: Excitation 340 nm, Emission 515 nm, Lag time 100 μs, Integration time 200 μs. TR-FRET ratios for each individual wells were calculated by equation: TR-FRET ratio=(Signal F515/Signal F486)*10000. The percent of activation of compounds treated wells were normalizedbetween vehicle control and low control. Then the data were analyzed using a 4-parameter logistic model to calculate ICso values."}, "[2]": {"molecular_target": "GppNp-loaded HIS-KRAS(G12D, aa 1-169) / cRAF RBD (Homo sapiens (Human), UniProt P01116, G12D)", "sequence (P01116 other isoform, or with tags, fused parts or gaps G12D)": "as above", "assay": "GTP-KRAS and cRAF interaction assay", "assay_type": "biochemical", "conditions": "HTRF; 2.0 nM GppNp-loaded HIS-KRAS(G12D), 35 nM cRAF RBD, 100 μM GTP, 2 hours at 25° C.", "method": "GppNp-loaded HIS-KRAS(G12D, aa 1-169) was pre-incubated with a compound in the presence of 200 μM GTP in a 384-well plate (Greiner) for 15 min, then cRAF RBD(GST tag, aa 50-132, CreativeBioMart), MAb Anti GST-d2 (Cisbio) and MAb Anti 6HIS-Tb cryptate Gold (Cisbio) were added to the assay wells (Final concentration: 2.0 nM GppNp-loaded HIS-KRAS(G12D), 100 μM GTP, 35 nM cRAF RBD, 1 μg/mL MAb Anti GST-d2, 52.5 ng/mL MAb Anti 6HIS-Tb cryptate Gold) and incubated for 2 hours at 25° C. Wells containing same percent of DMSO served as vehicle control, and wells without KRAS served as low control. HTRF signals were read on Tecan Spark multimode microplate reader and HTRF ratios were calculated under manufacturer's instructions. The percent of activation of compounds treated wells were normalized between vehicle control and low control. Then the data were analyzed using a 4-parameter logistic model to calculate IC50 values."}}}
{"smiles": "C#Cc1c(F)ccc2cc(O)cc(-c3c(Cl)c4c5c(nc(OC[C@@]67CCCN6C[C@H](F)C7)nc5c3F)N3C[C@H]5CC[C@H](N5)[C@H]3CO4)c12", "note": "(atropisomer, axis not shown) [Compound 13]", "values": [{"measurement": "IC50", "setting": "[1]", "result": 0.691, "unit": "nM"}, {"measurement": "IC50", "setting": "[2]", "result": 4.8, "unit": "nM"}]}
{"smiles": "Oc1cc(-c2cc3nc(OC[C@@]45CCCN4C[C@H](F)C5)nc4c3c(c2Cl)OC[C@H]2CNCCN42)c2ccccc2c1", "note": "[Compound 3]", "values": [{"measurement": "IC50", "setting": "[1]", "result": 294, "unit": "nM"}, {"measurement": "IC50", "setting": "[2]", "result": 11600, "unit": "nM"}]}
{"smiles": "C#Cc1cccc2cc(O)cc(-c3cc4c5c(nc(OCC6(CN7CCOCC7)CC6)nc5c3F)N3C[C@H]5CC[C@H](N5)[C@H]3CO4)c12", "note": "[Compound 5]", "values": [{"measurement": "IC50", "setting": "[1]", "result": 1.16, "unit": "nM"}, {"measurement": "IC50", "setting": "[2]", "result": 20.5, "unit": "nM"}]}
{"smiles": "CN(C)CC1(COc2nc3c4c(c(Cl)c(-c5cc(O)cc6ccccc56)cc4n2)OC[C@@H]2CNCCN32)CC1", "note": "[Compound 1]", "values": [{"measurement": "IC50", "setting": "[1]", "result": 3860, "unit": "nM"}, {"measurement": "IC50", "setting": "[2]", "result": 31400, "unit": "nM"}]}
{"smiles": "C#Cc1c(F)ccc2cc(O)cc(-c3nc4c5c(nc(OCC6(CN7CCOCC7)CC6)nc5c3F)N3C[C@H]5CC[C@H](N5)[C@H]3CO4)c12", "note": "[Compound 7]", "values": [{"measurement": "IC50", "setting": "[1]", "result": 0.659, "unit": "nM"}, {"measurement": "IC50", "setting": "[2]", "result": 9.8, "unit": "nM"}]}
{"smiles": "C#Cc1c(F)ccc2cc(O)cc(-c3nc4c5c(nc(OC[C@@]67CCCN6C[C@H](F)C7)nc5c3F)N3C[C@@H]5CC[C@@H](N5)[C@H]3CO4)c12", "note": "[Compound 9]", "values": [{"measurement": "IC50", "setting": "[1]", "result": 81, "unit": "nM"}, {"measurement": "IC50", "setting": "[2]", "result": 2240, "unit": "nM"}]}
{"smiles": "C#Cc1cccc2cc(O)cc(-c3cc4c5c(nc(OCC6(CN7CCOCC7)CC6)nc5c3F)N3[C@@H]5CN[C@@H](C5)[C@@H]3CO4)c12", "note": "[Compound 15]", "values": [{"measurement": "IC50", "setting": "[1]", "result": 11, "unit": "nM"}, {"measurement": "IC50", "setting": "[2]", "result": 251, "unit": "nM"}]}
{"smiles": "C#Cc1cccc2cc(O)cc(-c3cc4nc(OC[C@@]56CCCN5C[C@H](F)C6)nc5c4c(c3Cl)OC[C@@H]3[C@@H]4CC[C@H](CN53)N4)c12", "note": "[Compound 11]", "values": [{"measurement": "IC50", "setting": "[1]", "result": 7.24, "unit": "nM"}, {"measurement": "IC50", "setting": "[2]", "result": 184, "unit": "nM"}]}
{"smiles": "C#Cc1cccc2cc(O)cc(-c3cc4c5c(nc(OCC6(CN7CCOCC7)CC6)nc5c3F)N3C[C@H]5CC[C@H](N5)[C@@H]3CO4)c12", "note": "[Compound 4]", "values": [{"measurement": "IC50", "setting": "[1]", "result": 2.5, "unit": "nM"}, {"measurement": "IC50", "setting": "[2]", "result": 378, "unit": "nM"}]}
{"smiles": "C#Cc1c(F)ccc2cc(O)cc(-c3cc4c5c(nc(OC[C@@]67CCCN6C[C@H](F)C7)nc5c3F)N3C[C@H]5CC[C@H](N5)[C@H]3CO4)c12", "note": "[Compound 10]", "values": [{"measurement": "IC50", "setting": "[1]", "result": 0.452, "unit": "nM"}, {"measurement": "IC50", "setting": "[2]", "result": 5.4, "unit": "nM"}]}
{"smiles": "C#Cc1c(F)ccc2cc(O)cc(-c3c(Cl)c4c5c(nc(OC[C@@]67CCCN6C[C@H](F)C7)nc5c3F)N3C[C@H]5CC[C@H](N5)[C@H]3CO4)c12", "note": "(atropisomer, axis not shown) [Compound 12]", "values": [{"measurement": "IC50", "setting": "[1]", "result": 35.8, "unit": "nM"}, {"measurement": "IC50", "setting": "[2]", "result": 154, "unit": "nM"}]}
{"smiles": "CN(C)CC1(COc2nc3c4c(c(Cl)c(-c5cc(O)cc6ccccc56)cc4n2)OC[C@H]2CNCCN32)CC1", "note": "[Compound 2]", "values": [{"measurement": "IC50", "setting": "[1]", "result": 880, "unit": "nM"}, {"measurement": "IC50", "setting": "[2]", "result": 23300, "unit": "nM"}]}
{"smiles": "C#Cc1cccc2cc(O)cc(-c3cc4c5c(nc(OCC6(CN7CCOCC7)CC6)nc5c3F)N3[C@H]5CN[C@H](C5)[C@@H]3CO4)c12", "note": "[Compound 16]", "values": [{"measurement": "IC50", "setting": "[1]", "result": 86.1, "unit": "nM"}, {"measurement": "IC50", "setting": "[2]", "result": 660, "unit": "nM"}]}
{"smiles": "C#Cc1c(F)ccc2cc(O)cc(-c3cc4c5c(nc(OCC6(CN7CCOCC7)CC6)nc5c3F)N3C[C@H]5CC[C@H](N5)[C@H]3CO4)c12", "note": "[Compound 14]", "values": [{"measurement": "IC50", "setting": "[1]", "result": 1.15, "unit": "nM"}, {"measurement": "IC50", "setting": "[2]", "result": 9.2, "unit": "nM"}]}
{"smiles": "C#Cc1c(F)ccc2cc(O)cc(-c3nc4c5c(nc(OC[C@@]67CCCN6C[C@H](F)C7)nc5c3F)N3C[C@@H]5CC[C@@H](N5)[C@@H]3CO4)c12", "note": "[Compound 8]", "values": [{"measurement": "IC50", "setting": "[1]", "result": 32.6, "unit": "nM"}, {"measurement": "IC50", "setting": "[2]", "result": 280, "unit": "nM"}]}
{"smiles": "C#Cc1c(F)ccc2cc(O)cc(-c3nc4c5c(nc(OC[C@@]67CCCN6C[C@H](F)C7)nc5c3F)N3C[C@H]5CC[C@H](N5)[C@H]3CO4)c12", "note": "[Compound 6]", "values": [{"measurement": "IC50", "setting": "[1]", "result": 0.23, "unit": "nM"}, {"measurement": "IC50", "setting": "[2]", "result": 3.9, "unit": "nM"}]}
